Here are results for 18 molecules from patent publication US12509451B2, “Heteroaryl amide inhibitors of CD38” (NAPA THERAPEUTICS LTD., priority 2020, dated 2025).

The target in assay [1] is T1, CD38 NAD+ hydrolase activity in NH7-dCas9 cells (Jurkat clone) (Homo sapiens, UniProt P28907).
T1 construct: The assay utilized CD38 expressing NH7-dCas9 cells (Jurkat clone); host or cells: NH7-dCas9 cells (Jurkat clone)
T1 sequence (P28907 1-300): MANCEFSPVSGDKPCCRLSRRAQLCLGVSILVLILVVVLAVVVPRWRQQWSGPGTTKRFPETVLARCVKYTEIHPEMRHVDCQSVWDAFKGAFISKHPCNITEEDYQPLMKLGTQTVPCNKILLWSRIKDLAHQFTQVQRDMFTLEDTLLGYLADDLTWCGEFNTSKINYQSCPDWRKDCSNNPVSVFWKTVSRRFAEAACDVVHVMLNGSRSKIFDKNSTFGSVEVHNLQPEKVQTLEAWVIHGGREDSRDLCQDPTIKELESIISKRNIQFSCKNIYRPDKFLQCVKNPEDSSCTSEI
Kind of assay: Fluorescence-based NAD+ hydrolase activity assay with human T cell line NH7-dCas9 cells-Jurkat clone (Assay 1). Conditions: read-out: Assay 1 Arithmetic mean IC50. As for the experimental part: For the modified assay, the performance validation criteria of the assay as a High Throughput Screening (HTS): Z-factor within the plate was greater than 0.89 (optimal HTS z-factor >0.5) and the Intra-plate, inter-plate and day to day variability (CV) was less than 20%.
NAD+ hydrolase activity of a human T cell line treated with test compounds was measured using a fluorescence-based assay. NH7-dCas9 cells (Jurkat clone) were provided by the Weissman Lab (UCSF 1700 4th St., Byers Hall, Room 403B, San Francisco, CA 94158-2330). Briefly, cells were centrifuged, resuspended in 44 μl PBS/10^6 cells and plated in a 96 well black plate (CORNING) at a density of 1×10^6 per well.
(§1) Each test compound was received in a powder state and dissolved in DMSO as a 25 mM stock solution. Each test compound was serially diluted in order to generate a dose-response curve. The dilution series of each test compound in DMSO was prepared at 50 times the concentrations to be assayed. Each test compound was diluted to generate a 5-fold dilution series of 8 concentrations from 20 μM to 0.256 nM in order to assay 8 final concentrations ranging from 400 nM to 25.6 pM. One μl of the 50× concentration compound series was added to each well of the plate containing 1×10^6 cells in PBS.
Each plate had the following intra plate controls: 3 wells containing cells treated with vehicle only (DMSO), 3 wells of cells treated with the reference compound 78c at a final concentration of 50 nM and 2 wells containing only PBS (used as a background value).
(§2) The reaction was started by adding nicotinamide 1,N^6-etheno-adenine dinucleotide (Sigma Aldrich) to reach a final concentration of 80 µM. The samples were excited at 321-15 nm, and the emission of fluorescence was measured at 410-20 nm at 37° C. every minute for 1 hr in a Clariostar® microplate reader (BMG LABTECH). NAD+ hydrolase activity was calculated as the slope of the linear portion of the fluorescence-time curve using the MARS data analysis software (BMG LABTECH). The data were uploaded in the Collaborative Drug Design (CDD) Software and for each compound the IC50 was calculated by the software. Each compound was tested in 3 independent experiments on 3 separate days to establish the reproducibility of the results. For each plate, the z-factor was also calculated as a plate quality using the CDD software.

For assay [2], the target named is T2, recombinant human CD38 Protein (Homo sapiens, UniProt P28907).
T2 construct: purchased R&D System
T2 sequence (P28907 1-300): T1 sequence (P28907 1-300)
Kind of assay: Fluorescence-based NAD+ cyclase activity assay with human recombinant CD38 protein (Assay 2). The class given is biochemical. Conditions: read-out: Assay 2 Arithmetic mean IC50. As for the experimental part: This protocol was modified from the de Oliveira et al., 2018 reference, supra.
NAD+ cyclase activity of the human recombinant CD38 protein treated with test compounds was measured using a fluorescence-based assay. Briefly, recombinant human CD38 Protein (R&D System) was resuspended in 44 μl/well of Sucrose-Tris Buffer (Sucrose 0.25 M, Tris pH 7.4 40 mM) and plated in a 96-well black plate (CORNING) at a density of 125 ng/well.
as §1, with “100” for “20”, “32” for “0.256”, “2 μM” for “400 nM”, “0.64 nM.” for “25.6 pM.”, “125 ng of protein” for “1×10^6 cells”, “Sucrose-Tris buffer.” for “PBS.”
The reaction was started adding nicotinamide guanine dinucleotide (NGD+) (Sigma Aldrich) to reach a final concentration of 150 µM. The samples were excited at 337-15 nm, and the emission of fluorescence was measured at 442-20 nm at 37° C. every minute for 1 hr in a Clariostar microplate reader (BMG LABTECH). NAD+ cyclase activity was calculated as the slope of the linear portion of the fluorescence-time curve using the MARS data analysis software (BMG LABTECH). The data were uploaded in the Collaborative Drug Design (CDD) Software, and for each compound the IC50 was calculated by the software. For each plate, the z-factor was also calculated as a plate quality using the CDD software.

Assay [3] concerns the target T2, recombinant human CD38 Protein. Nature of the assay: Fluorescence-based NAD+ hydrolase activity assay with human recombinant CD38 protein (Assay 3). The class given is biochemical. Particulars: read-out: Assay 3 Arithmetic mean IC50. As for the experimental part: This protocol was modified from the following references (Muller et al. (1983); (Schultz et al. (2018); (Matalonga et al. (2017); and de Oliveira et al. (2018), supra.
NAD+ hydrolase activity of the human recombinant CD38 protein treated with test compounds was measured using a fluorescence-based assay. Briefly, recombinant human CD38 Protein (R&D System) was resuspended in 44 μl/well of Sucrose-Tris Buffer (Sucrose 0.25 M, Tris pH 7.4 40 mM) and plated in a 96-well black plate (CORNING) at a density of 10 ng/well.
Each test compound was received in a powder state and dissolved in DMSO as a 25 mM stock solution. Each test compound was serially diluted in order to generate a dose-response curve. The dilution series of each test compound in DMSO was prepared at 50× the concentrations to be assayed. Each test compound was diluted to generate a 5-fold dilution series of 8 concentrations from 20 μM to 0.256 nM in order to assay 8 final concentrations ranging from ranging from 400 nM to 25.6 pM. One μl of the 50× concentration compound series was added to each well of the plate containing 10 ng protein in Sucrose-Tris buffer.
as §2, with “started” for “started by”, “nm” for “nm,”, “Each compound was tested in 3 independent experiments on 3 separate days to establish the reproducibility of the results.” left out

Assay [4] addresses T3, recombinant mouse CD38 Protein (Mus musculus, UniProt P56528).
T3 construct: purchased R&D System
T3 sequence (P56528 1-304): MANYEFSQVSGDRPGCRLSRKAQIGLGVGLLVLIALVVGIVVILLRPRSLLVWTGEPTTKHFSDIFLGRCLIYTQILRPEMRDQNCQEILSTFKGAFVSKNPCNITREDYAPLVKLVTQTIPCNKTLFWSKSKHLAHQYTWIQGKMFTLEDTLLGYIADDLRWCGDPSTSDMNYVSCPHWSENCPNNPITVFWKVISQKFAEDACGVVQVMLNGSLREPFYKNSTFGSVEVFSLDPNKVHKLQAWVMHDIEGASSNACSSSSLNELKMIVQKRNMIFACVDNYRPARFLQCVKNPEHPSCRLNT
Kind of assay: Fluorescence-based NAD+ hydrolase activity assay with mouse recombinant CD38 protein (Assay 5). The class given is biochemical. Conditions: read-out: Assay 5 Arithmetic mean IC50. As for the experimental part: This protocol was modified from the following references: Muller et al. (1983); Schultz et al. (2018); Matalonga et al. (2017); and de Oliveira et al. (2018), supra.
NAD+ hydrolase activity of the mouse recombinant CD38 protein treated with test compounds was measured using a fluorescence-based assay. Briefly, recombinant mouse CD38 Protein (R&D System) was resuspended in 44 μl/well of Sucrose-Tris Buffer (Sucrose 0.25 M, Tris pH 7.4 40 mM) and plated in a 96 well black plate (CORNING) at a density of 2.5 ng/well.
Each test compound was received in a powder state and dissolved in DMSO as a 25 mM stock solution. Each test compound was serially diluted in order to generate a dose-response curve. The dilution series of each test compound in DMSO was prepared at 50 times the concentrations to be assayed. Each test compound was diluted to generate a 5-fold dilution series of 8 concentrations from 20 μM to 0.256 nM in order to assay 8 final concentrations ranging from 400 nM to 25.6 pM. One μl of the 50× concentration compound series was added to each well of the plate containing 2.5 ng of protein in Sucrose-Tris buffer.
Each plate had the following intra plate controls: 3 wells containing cells treated with vehicle only (DMSO), 3 wells of cells treated with the reference compounds 78c at a final concentration of 50 nM and 2 wells containing only Sucrose-Tris buffer (used as a background value).
as §2, with “started” for “started by”, “nm” for “nm,”, “Clariostar Microplate®” for “Clariostar® microplate”

In general, IC50 refers to the midpoint of a concentration-inhibition curve. `Cc1cc(NC(=O)c2cccc(-n3ccnc3)n2)cc(C#N)n1` [Compound 4]: the IC50 is less than 1 nM in assay [1], 51 to 1000 nM in assay [2] and less than 1 nM in assay [3].
In the case of `COCCNc1cc(NC(=O)c2cccc(-n3ccnc3)n2)ccn1` [Compound 10], the half-maximal inhibitory concentration (IC50) in assay [1] and in assay [3] was 1 to 50 nM throughout.
With `NC(=O)c1cc(NC(=O)c2cccc(-n3ccnc3)n2)ccn1` [Compound 17], the IC50 in assay [1], in assay [3] and in assay [4] was 1 to 50 nM each time.
On to `CCN(C(C)=O)c1ccc(NC(=O)c2cccc(-n3ccnc3)n2)cn1` [Compound 19], for which the concentration for half-maximal inhibition (IC50) in assay [1], in assay [3] and in assay [4] was 1 to 50 nM in each case.
Consider `O=C(O)c1ccc(NC(=O)c2cccc(-n3ccnc3)n2)cn1` [Compound 21], for which the half-inhibitory concentration (IC50) in assay [1], in assay [3] and in assay [4] was 1 to 50 nM in each case.
As for `CNC(=O)c1cc(NC(=O)c2cccc(-n3ccnc3)n2)ccn1` [Compound 23], the IC50 in assay [1] and in assay [3] was 1 to 50 nM each time.
In the case of `O=C(Nc1ccccn1)c1cccc(-n2ccnc2)n1` [Compound 25], the IC50 in assay [1] and in assay [3] was 51 to 1000 nM each time.
On to `Cc1cncn1-c1cccc(C(=O)Nc2cccnc2)n1` [Compound 26], for which the IC50 in assay [1], in assay [3] and in assay [4] was 51 to 1000 nM throughout.
For the molecule `Cc1cc(C(=O)Nc2ccncc2)nc(-c2cncn2C)c1` [Compound 44], the IC50 in assay [1] was less than 1 nM; in assay [3], 1 to 50 nM; in assay [4] it was 1 to 50 nM.
In the case of `O=C(Nc1ccc(C(F)(F)F)nc1)c1cccc(-c2cncs2)n1` [Compound 46], in assay [3], the half-inhibitory concentration (IC50) lay within 1 to 50 nM.
On to `Cc1ccc(C(=O)Nc2cccnc2)nc1-n1ccnc1` [Compound 58, 6-(1H-imidazol-1-yl)-5-methyl-N-(pyridin-3-yl)picolinamide], for which the results for the concentration for half-maximal inhibition (IC50) in assay [1], in assay [3] and in assay [4] were 51 to 1000 nM, 51 to 1000 nM and 1 to 50 nM, respectively.
As to `COc1ccc(C(=O)Nc2cccnc2)nc1-n1ccnc1` [Compound 60], the figures for the IC50 in assay [1], in assay [3] and in assay [4] were 51 to 1000 nM, 51 to 1000 nM and 1 to 50 nM, respectively.
Turning to `COc1ccc(-n2ccnc2)nc1C(=O)Nc1cccnc1` [Compound 63], the concentration for half-maximal inhibition (IC50) in assay [1], in assay [3] and in assay [4] was 1 to 50 nM throughout.
On to `Nc1ccc(-n2ccnc2)nc1C(=O)Nc1ccncc1` [Compound 64, 3-amino-6-(1H-imidazol-1-yl)-N-(pyridin-4-yl)picolinamide], for which the IC50 in assay [1] was less than 1 nM; in assay [3], 1 to 50 nM; in assay [4], less than 1 nM.
Turning to `Nc1ccc(-n2ccnc2)nc1C(=O)Nc1ccnc(F)c1` [Compound 65], the IC50 in assay [1], in assay [3] and in assay [4] was less than 1 nM each time.
With `Nc1ccc(-n2ccnc2)nc1C(=O)Nc1ccnc(C(F)(F)F)c1` [Compound 66], the figures for the IC50 in assay [1], in assay [3] and in assay [4] were less than 1 nM, 1 to 50 nM and less than 1 nM, respectively.
With `CNc1cc(C(=O)Nc2cccnc2)nc(-n2ccnc2)c1` [Compound 68], the IC50 in assay [1] and in assay [3] was less than 1 nM in each case.
`O=C(Nc1cccnc1)c1ccnc(-n2ccnc2)n1` [Compound 69]: the 50% inhibitory concentration (IC50) in assay [1] is less than 1 nM; in assay [3], 1 to 50 nM.
